Laboratory results published in patent US8080535B2, “Hyaluronic acid nutritional supplements and methods of using the same” (Leneau Holdings, LLC, priority 2001, dated 2011).

Key:
[1] = system: patients suffering from osteoarthritis; experiment: Oral ingestion of hyaluronic acid by patients suffering from osteoarthritis, subjective pain feeling; assay type: in vivo, human; settings: of sixty-seven osteoarthritis patients; 1-4 mg oral 1 to 4 times a day
Protocol: A study involving sixty-seven patients suffering from osteoarthritis was undertaken to determine the effectiveness of oral ingestion of hyaluronic acid. Each patient received 1-4 mg of hyaluronic acid by oral ingestion administration 1 to 4 times a day over periods ranging from about […], during which period the patients' subjective pain feeling was reported. […] Fourteen patients reported no change in the amount of pain they felt.

[2] = system: human patients suffering pain and discomfort associated with fibromyalgia; experiment: Oral ingestion of hyaluronic acid by patients afflicted with fibromyalgia, subjective pain feeling; assay type: in vivo
Protocol: Another study involving thirty-five human patients suffering pain and discomfort associated with fibromyalgia was undertaken to evaluate the effectiveness of oral ingestion of hyaluronic acid. Each patient received about 1 to about 6 mg of hyaluronic acid by oral ingestion administration of concentrate diluted into beverages or food. Over a treatment period of about 1 to about 14 months, the patients' subjective pain feeling was reported. Twenty-one patients reported no pain after hyaluronic acid therapy. Six patients (17.1%) reported some (60%) degree of pain relief. Eight patients reported no change in the amount of pain they felt.

[3] = system: human patients suffering pain and discomfort associated with rheumatoid arthritis; experiment: Oral ingestion of hyaluronic acid by patients afflicted with rheumatoid arthritis, subjective pain score 0 to 10; assay type: in vivo; settings: scale 0 to 10; about 1 mg oral solution for 30 days; average prior to the study 8.47; 15 of seventeen patients responded
Protocol: Another study involving seventeen human patients suffering pain and discomfort associated with rheumatoid arthritis was undertaken. Each patient received about 1 mg of an oral hyaluronic acid solution for a period of 30 days. Each patient was asked to evaluate his or her subjective pain feeling and report the score on a scale of 0 to 10, wherein 0 means no pain and/or stiffness whatsoever and 10 means worst imaginable pain and/or stiffness. Prior to the start of the study, the patients reported as follows: […]

[4] = of thirty-five fibromyalgia patients, about 1 to about 6 mg oral, about 1 to about 14 months

Q: Which “patients reported no change in the amount of pain” value [1] does the source give for hyaluronic acid here?
A: Fourteen

Q: What about the “patients reported no pain and increased range of motion” value [1] of the same substance?
A: Twenty-nine

Q: What about the “patients reported no pain and increased range of motion (percent of patients)” value [1] of the same substance?
A: 43.3%

Q: And the “patients reported some degree of pain relief and some increased range of motion” value [1]?
A: Twenty-four

Q: And the “patients reported some degree of pain relief and some increased range of motion (percent of patients)” value [1]?
A: 35.8%

Q: And the “patients reported no change in the amount of pain” value [2, 4]?
A: Eight

Q: What about the “patients reported no pain after hyaluronic acid therapy” value [2, 4] of the same substance?
A: Twenty-one

Q: What about the “patients reported some degree of pain relief” value [2, 4] of the same substance?
A: Six

Q: What about the “patients reported some degree of pain relief (percent of patients)” value [2, 4] of the same substance?
A: 17.1%

Q: What about the “some (60%) degree of pain relief” value ([2]; printed in brackets in the sentence on the six patients with some pain relief) of the same substance?
A: 60%

Q: What about the “average subjective pain and/or stiffness score at completion of the 30-day study” value [3] of the same substance?
A: 3.47
